Experimental data reported in PubChem BioAssay (NCI).
Several values for one entry are separate records, joined by “and”; a condition that tells them apart may be missing. Equal values may be shown once.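 Values below derive from 48-hour exposures of cells grown in 96-well plates, with endpoints linearly interpolated between the two concentrations bracketing the appropriate inhibition level. At the GI50, growth is halved. TGI marks complete inhibition of growth.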

Columns and labels:
Assay in all cases: NCI anticancer screen, dose series, 48 h
RXF 393 renal = system: RXF 393 renal
T-47D breast = system: T-47D breast
SK-OV-3 ovarian = system: SK-OV-3 ovarian
SNB-19 CNS = system: SNB-19 CNS
HOP-62 NSCLC = system: HOP-62 NSCLC
SW-620 colon = system: SW-620 colon
LOX IMVI melanoma = system: LOX IMVI melanoma
HCC-2998 colon = system: HCC-2998 colon
MOLT-4 leukemia = system: MOLT-4 leukemia
RPMI-8226 leukemia = system: RPMI-8226 leukemia

SMILES | GI50 (RXF 393 renal) | TGI (RXF 393 renal) | GI50 (T-47D breast) | TGI (T-47D breast) | GI50 (SK-OV-3 ovarian) | TGI (SK-OV-3 ovarian) | GI50 (SNB-19 CNS) | TGI (SNB-19 CNS) | GI50 (HOP-62 NSCLC) | TGI (HOP-62 NSCLC) | GI50 (SW-620 colon) | TGI (SW-620 colon) | GI50 (LOX IMVI melanoma) | TGI (LOX IMVI melanoma) | GI50 (HCC-2998 colon) | TGI (HCC-2998 colon) | GI50 (MOLT-4 leukemia) | TGI (MOLT-4 leukemia) | GI50 (RPMI-8226 leukemia) | TGI (RPMI-8226 leukemia)
COc1ccc(C2CC(c3cccc(Nc4ccnc5cc(Cl)ccc45)c3)=NN2C=O)cc1 (stereo not given) | 0.883 µM | 7.39 µM | 0.604 µM | > 42.8 µM | 0.795 µM | > 35.6 µM | 0.902 µM | > 100 µM | 0.747 µM | 27.6 µM | 0.333 µM | > 100 µM | 0.584 µM | 6.8 µM | 1.68 µM | > 100 µM | 0.487 µM | > 100 µM | 3.64 µM | > 24 µM
COC[C@@H](N=C1NC(=O)/C(=C/c2ccc3ncccc3c2)S1)c1ccccc1 | 6.47 µM | > 24.2 µM | 8.43 µM | > 25 µM | 9.35 µM | > 25 µM | 8.82 µM | > 25 µM | 11.7 µM | > 25 µM | 8.91 µM | > 25 µM | 9.73 µM | > 25 µM | 12.3 µM | > 25 µM | 8.88 µM | > 25 µM | 6.13 µM | 20.7 µM
CC1=CC(=O)C2=C(C)CCC3C(C)C(=O)OC3C12 (stereo not given) | – | > 100 µM | – | > 100 µM | – | > 100 µM | – | > 100 µM | – | > 100 µM | – | > 100 µM | – | > 100 µM | – | > 100 µM | – | > 100 µM | – | > 100 µM
O=S(=O)(NCCCNc1nccc(-c2c(-c3ccc(O)cc3)nc3sccn23)n1)c1ccc(F)cc1 | 2.74 µM | > 100 µM | 1.39 µM | 3.55 µM | 2.12 µM | 8.88 µM | 4.27 µM | > 100 µM | 3.67 µM | 14.9 µM | 3.66 µM | > 100 µM | 0.567 µM | 5.44 µM | 3.37 µM | 6.93 µM | 2.47 µM | 8.81 µM | 1.58 µM | 4.72 µM
Cc1cccc(N(C)C(=O)[C@@H]2[C@H](O)CCN2c2nc(C)cc(C(F)(F)F)c2C#N)c1 | 14.6 µM | 40.1 µM | 23.2 µM | > 100 µM | 24.1 µM | 81.1 µM | 31.1 µM | > 100 µM | 25.8 µM | > 100 µM | 37.8 µM | > 100 µM | 3.61 µM | 27.3 µM | 22.7 µM | 88.1 µM | 1.98 µM | 53.8 µM | 16.3 µM | 41.6 µM
Nc1nccc(-c2c(-c3ccc(F)cc3)ncn2C2CCNCC2)n1 | 2.35 µM and 3.6 µM | > 25 µM and 10.5 µM | 1.55 µM and 4.2 µM | > 25 µM | 3.34 µM and 5.45 µM | > 25 µM | 6.91 µM and 3.96 µM | > 25 µM | 5.29 µM and 3.85 µM | > 25 µM | 4.25 µM and 1.38 µM | > 25 µM | 2.84 µM and 2.33 µM | > 25 µM | 9.58 µM and 3.89 µM | > 25 µM and 12.2 µM | 17.8 µM and 7.16 µM | > 25 µM | 12.6 µM and 7.07 µM | > 25 µM
CCOC(=O)C1Cc2c(cc3c4c(cccc24)N(C(C)=O)C3)N(C)C1 (stereo not given) | – | 44.7 µM | – | > 100 µM | – | > 100 µM | – | > 100 µM | – | > 100 µM | – | > 100 µM | – | > 100 µM | – | > 100 µM | – | > 100 µM | – | > 100 µM
CCN(CCCN(C)C)Cc1cc(I)cc(C)c1O | 17.1 µM | 51.1 µM | 21.3 µM | 48.5 µM | 35.3 µM | > 100 µM | 26.9 µM | 63.1 µM | 17 µM | 34.4 µM | 17.1 µM | 31.9 µM | 18.3 µM | 34.6 µM | 16.1 µM | 32.2 µM | 17.9 µM | 36.5 µM | 15.1 µM | 34 µM
NS(=O)(=O)c1ccc(Nc2cc(-c3cccc(O)c3)[nH]n2)cc1 | > 25 µM | > 25 µM | 10 µM | > 25 µM | > 25 µM | > 25 µM | > 25 µM | > 25 µM | > 25 µM | > 25 µM | > 25 µM | > 25 µM | > 25 µM | > 25 µM | > 25 µM | > 25 µM | 13.4 µM | > 25 µM | > 25 µM | > 25 µM
CCOC(=O)c1ccc(NC(=O)Nc2nncs2)cc1 | 0.14 µM | 0.489 µM | 0.584 µM | 34.4 µM | 0.178 µM | 3.11 µM | 0.456 µM | > 61.1 µM | 0.237 µM | 15.6 µM | 0.0818 µM | > 100 µM | 0.485 µM | 7.67 µM | 0.571 µM | 8.24 µM | 0.384 µM | > 48.7 µM | 0.499 µM | 10.2 µM
Fc1cccc(COc2ccc(Nc3ncnc4sc(-c5cccs5)cc34)cc2Cl)c1 | 4.37 µM | 12 µM | 2.71 µM | 9.04 µM | 3.47 µM | 9.69 µM | 5.33 µM | 12 µM | 4.88 µM | 9.86 µM | > 13.3 µM | > 25 µM | > 14.6 µM | > 25 µM | 5.25 µM | > 18.4 µM | > 25 µM | > 25 µM | > 25 µM | > 25 µM
O=C(Nc1ccc2[nH]nc(-c3ccncc3)c2c1)[C@@H]1CCN(CC(=O)N2CCN(c3ccc(-c4ncccn4)cc3)CC2)C1 | 2.84 µM | > 100 µM | 2.74 µM | > 100 µM | > 100 µM | > 100 µM | > 100 µM | > 100 µM | 0.281 µM | > 100 µM | 0.101 µM | > 100 µM | 0.0539 µM | > 100 µM | 0.241 µM | > 100 µM | 5.22 µM | > 80.6 µM | 4.29 µM | > 66.7 µM
